According to patent publication US20230310445A1, “LOX ENZYME INHIBITING METHODS AND COMPOSITIONS” (ANOVIA BIOSCIENCES, INC., priority 2020, published 2023):
pIC50: −log10 of the molar value.

Tests used:
[1] = target: T1, Bovine lysyl oxidase (LOX) (Bos taurus, UniProt P33072); test: LOX inhibition assay (fluorometric, cadaverine/Amplex Red/HRP); type: biochemical; settings: IC50 class; bovine tendon LOX, cadaverine substrate; read-out: Activity Range LOX
T1 construct: from tissue; host or cells: adult bovine tendon
T1 sequence (P33072 170-418): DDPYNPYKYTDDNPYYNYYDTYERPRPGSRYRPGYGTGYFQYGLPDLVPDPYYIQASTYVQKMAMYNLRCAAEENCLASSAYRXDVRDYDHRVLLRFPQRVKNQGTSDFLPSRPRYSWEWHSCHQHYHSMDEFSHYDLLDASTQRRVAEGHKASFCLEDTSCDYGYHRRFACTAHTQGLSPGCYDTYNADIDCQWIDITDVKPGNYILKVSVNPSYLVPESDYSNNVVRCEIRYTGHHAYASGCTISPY
Method: (§1) The ability of compounds to inhibit prototypic LOX was determined using a fluorometric assay. This assay measures the activity of lysyl oxidases by coupling the reaction with horseradish peroxidase-catalyzed […]. The activity assay protocol uses cadaverine as substrate that releases hydrogen peroxide upon transformation by prototypic LOX enzyme present in the sample. Hydrogen peroxide is in turn detected using a red fluorescence substrate for HRP-coupled reactions (Amplex Red Enzyme Assays, Thermo Scientific Fisher). This leads to increase in fluorescence that can be easily detected at Ex/Em=540/590 nm in a fluorescence microplate reader.
Enzyme: Bovine lysyl oxidase (LOX) was extracted by adapting the methodology from [Kagan et al. 1979 and Borel et al. 2001.] from bovine tendon: Frozen adult bovine tendon was placed in room temperature water to defrost, and then membranes were removed and the remaining tissue cut into 1 cm pieces. The material was first passed through a course mesh meat grinder, and this mince was passed through a fine mesh grinder. The mince was homogenized in 10 v/w of buffer (16 mM sodium phosphate buffer pH 7.8, 400 mM NaCl) using a Waring blender. The homogenate was centrifuged at 15,000×g for 15 min at 4° C. After centrifugation, the supernatant was discarded and the pellets resuspended in 10 volumes of the same buffer. The mixture was blended again and centrifuged with the same settings. This time the pellets were blended in 3 volumes of extraction buffer (16 mM sodium phosphate buffer pH 7.8) and left to incubate at 4° C. for 2 h. After this time, the slurry was centrifuged with the same settings as described above. The supernatant was used in an ultrafiltration step to remove large proteins by size exclusion through a 30 kDalton filter (EMD Millipore). The filtrate was mixed with DEAE Sephadex (GE Healthcare), or passed over a MonoQ FPLC column. After two washes, one in 16 mM sodium phosphate buffer pH 7.8, 380 mM NaCl, and another in 16 mM sodium phosphate buffer pH 7.8, the proteins were eluted with 16 mM sodium phosphate pH 7.8, 10 μM CuSO4, and 4 M urea. Fractions containing Lox activity were collected and stored frozen at −70° C.
Reaction: Final concentration in the LOX assay was as following and performed in a total volume of […]:
Experimental procedure: 7 μl of freshly prepared reaction buffer were delivered to reaction wells. Compounds were resuspended in 100% DMSO at 10 mM and delivered into buffer using acoustic technology (Echo550; nanoliter range). A 2.85× solution of LOX protein in reaction buffer was prepared (“LOX solution”) and 7 μl of LOX solution was added into the reaction wells. Buffer only was added to column 1 for no protein control. Reactions were incubated for 30 minutes at 37° C. A 3.33× mixture of cadaverine, Amplex Red, and HRP (“Substrate/Detection Mix) was prepared and subsequently 6 μL of the mixture was added to each reaction well. Progress of reactions was monitored for 120 minutes at 37° C. using Clariostar plate reader (ex530-12, ems 600-40). For all activity assays, pan-LOX inhibitor CCT365623 (Tang et al, 2017) and LOXL2/LOXL3 inhibitor PAT-1251 (PharmaKea) were included as standards.
Data analysis: Slope of the linear portion of the progress curve was calculated using Clariostar software. Typical analysis interval was between 20-50 min, but varied between experiments. The background subtracted signals (No protein wells were considered as background) were converted to % activity relative to DMSO controls. Data was analyzed using GraphPad Prism 4 with “sigmoidal dose-response (variable slope)”; 4 parameters with Hill Slope. Constraints: Bottom=Constant equal to 0. Top=Must be less than 120.

[2] = target: T2, Recombinant human LOXL2 (lysyl oxidase like 2) (Homo sapiens, UniProt Q9Y4K0); test: LOXL2 inhibition assay (fluorometric, cadaverine/Amplex Red/HRP); type: biochemical; settings: IC50 class; recombinant human LOXL2, cadaverine substrate; read-out: Activity Range LOXL2
T2 construct: purchased R&D systems
T2 sequence (Q9Y4K0 26-774): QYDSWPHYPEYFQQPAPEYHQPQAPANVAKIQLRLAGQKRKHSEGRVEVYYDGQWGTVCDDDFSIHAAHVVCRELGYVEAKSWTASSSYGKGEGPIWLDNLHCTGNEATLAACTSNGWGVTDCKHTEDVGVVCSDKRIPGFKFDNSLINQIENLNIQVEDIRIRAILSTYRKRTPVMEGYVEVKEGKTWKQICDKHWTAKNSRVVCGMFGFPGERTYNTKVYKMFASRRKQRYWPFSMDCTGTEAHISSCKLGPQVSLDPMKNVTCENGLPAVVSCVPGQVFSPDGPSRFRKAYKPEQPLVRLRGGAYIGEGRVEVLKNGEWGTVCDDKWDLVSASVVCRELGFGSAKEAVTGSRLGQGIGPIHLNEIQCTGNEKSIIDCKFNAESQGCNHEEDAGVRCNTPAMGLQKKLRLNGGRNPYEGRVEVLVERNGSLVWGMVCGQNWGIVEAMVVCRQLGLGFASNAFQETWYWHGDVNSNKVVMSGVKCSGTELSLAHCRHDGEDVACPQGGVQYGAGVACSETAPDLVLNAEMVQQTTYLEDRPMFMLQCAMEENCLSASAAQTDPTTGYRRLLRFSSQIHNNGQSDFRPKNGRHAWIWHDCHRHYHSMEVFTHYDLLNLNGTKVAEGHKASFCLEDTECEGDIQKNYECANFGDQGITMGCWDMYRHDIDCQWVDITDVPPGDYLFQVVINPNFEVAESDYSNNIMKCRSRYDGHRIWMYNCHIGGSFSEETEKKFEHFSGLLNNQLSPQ
Method: as §1, with “inhibit one or more of the lysyl oxidases LOXL2 and/or LOXL3” for “inhibit prototypic LOX”, “by the specific” for “by prototypic”, “LOX family” for “LOX”
Enzymes: Recombinant human LOXL2 (lysyl oxidase like 2) and recombinant human LOXL3 (lysyl oxidase like 3) were purchased from R&D systems and assays were performed in 1.2 M urea, 50 mM sodium borate buffer pH 8.0, and 10 mM CaCl.
Reaction: Final concentration in the LOXL2 and LOXL3 assays were as following and performed in a total volume of […]:
Experimental procedure: 5 μl of freshly prepared reaction buffer were delivered to reaction wells. Compounds were resuspended in 100% DMSO at 10 mM and delivered into buffer using acoustic technology (Echo550; nanoliter range). A 3× solution of LOXL2 or LOXL3 in reaction buffer was prepared (“enzyme solution”) and 5 μL of enzyme solution was added into the reaction wells. Buffer only was added to column 1 for no protein control. Reactions were incubated for 30 minutes at 37° C. A 3×mixture of cadaverine, Amplex Red, and HRP (“Substrate/Detection Mix) was prepared and subsequently 5 μL of the mixture added to each reaction well. Progress of reactions was monitored for 60 minutes at 37° C. using Clariostar plate reader (ex 530-12, ems 600-40). For all activity assays, pan-LOX inhibitor CCT365623 (Tang et al, 2017) and LOXL2/LOXL3 inhibitor PAT-1251 (PharmaKea) were included as standards.
Data analysis: Slope of the linear portion of the progress curve was calculated using Clariostar software. Typical analysis interval was between 8-30 min, but varied between experiments. The background subtracted signals (No protein wells are considered as background) were converted to % activity relative to DMSO controls. Data was analyzed using GraphPad Prism 4 with “sigmoidal dose-response (variable slope)”; 4 parameters with Hill Slope. Constraints: Bottom=Constant equal to 0. Top=Must be less than 120.

| pIC50 [1] | pIC50 [2] | SMILES |
| --- | --- | --- |
| 4.52 to 6.00 | ≥ 6.30 | CS(=O)(=O)N1CCN(C(=O)[C@@H]2C[C@@H](c3ccccc3)CN(S(=O)(=O)c3ncc(CN)s3)C2)CC1 (racemic) [Example 113T, trans-(1-((5-(Aminomethyl)thiazol-2-yl)sulfonyl)-5-phenylpiperidin-3-yl)(4-(methylsulfonyl)piperazin-1-yl)methanone 2,2,2-trifluoroacetate] |
| < 4.52 | ≥ 6.30 | NCc1cccc(S(=O)(=O)[C@H]2C[C@H](C(=O)N3CCOCC3)CN(C3CCCCC3)C2)c1 (racemic) [Example 142T, trans-(5-((3-(Aminomethyl)phenyl)sulfonyl)-1-cyclohexylpiperidin-3-yl)(morpholino)methanone 2,2,2-trifluoroacetate] |
| < 4.52 | < 4.52 | CC(N)c1cccc(S(=O)(=O)N2C[C@H](C(=O)N3CCOCC3)C[C@@H](c3ccccc3)C2)c1 (mixture of isomers) [Example 102TR, trans-(1-((3-(1-Aminoethyl)phenyl)sulfonyl)-5-phenylpiperidin-3-yl)(morpholino)methanone 2,2,2-trifluoroacetate] |

Continued, compound first:

| SMILES | pIC50 [1] | pIC50 [2] |
| --- | --- | --- |
| CS(=O)(=O)N1C[C@@H](Oc2cc(CN)ccc2F)C[C@H](c2ccccc2F)C1 (racemic) [Example 93, trans-(4-Fluoro-3-((-5-(2-fluorophenyl)-1-(methylsulfonyl)piperidin-3-yl)oxy)phenyl)methanamine 2,2,2-trifluoroacetate] | < 4.52 | ≥ 6.30 |
| CN(C)C(=O)N1C[C@@H](c2ccccc2)C[C@H](S(=O)(=O)c2cccc(CN)c2)C1 (racemic) [Example 94, trans-3-((3-(Aminomethyl)phenyl)sulfonyl)-N,N-dimethyl-5-phenylpiperidine-1-carboxamide 2,2,2-trifluoroacetate] | < 4.52 | 6.00 to 6.30 |
| CC(N)c1cccc(S(=O)(=O)N2C[C@H](C(=O)N3CCS(=O)(=O)CC3)C[C@@H](c3ccccc3)C2)c1 (mixture of isomers) [Example 106, trans-(1-((3-(1-Aminoethyl)phenyl)sulfonyl)-5-phenylpiperidin-3-yl) (1,1-dioxidothiomorpholino)methanone 2,2,2-trifluoroacetate] | < 4.52 | < 4.52 |
| NCc1ccc(S(=O)(=O)N2C[C@@H](C(=O)N3CCS(=O)(=O)CC3)C[C@@H](C3CCCCC3)C2)s1 (racemic) [Example 121, cis-(1-((5-(Aminomethyl)thiophen-2-yl)sulfonyl)-5-cyclohexylpiperidin-3-yl)(1,1-dioxidothiomorpholino)methanone 2,2,2-trifluoroacetate] | ≥ 6.30 | ≥ 6.30 |
| NCc1ccnc(S(=O)(=O)N2C[C@@H](C(=O)N3CCOCC3)C[C@@H](N3CCOCC3)C2)c1 (racemic) [Example 155, cis-(1-((4-(Aminomethyl)pyridin-2-yl)sulfonyl)-5-morpholinopiperidin-3-yl)(morpholino)methanone 2,2,2-trifluoroacetate] | 4.52 to 6.00 | 6.00 to 6.30 |
| NCc1cc(S(=O)(=O)N2C[C@@H](C(=O)N3CCS(=O)(=O)CC3)C[C@@H](c3ccccc3)C2)ccn1 (racemic) [Example 130, cis-(1-((2-(Aminomethyl)pyridin-4-yl)sulfonyl)-5-phenylpiperidin-3-yl)(1,1-dioxidothiomorpholino)methanone 2,2,2-trifluoroacetate] | 4.52 to 6.00 | 6.00 to 6.30 |
| CS(=O)(=O)N1CCN(C(=O)[C@H]2C[C@@H](c3ccccc3)CN(S(=O)(=O)c3ccc(CN)s3)C2)CC1 (racemic) [Example 76] | ≥ 6.30 | ≥ 6.30 |
| CN(C)C(=O)[C@H]1C[C@@H](c2ccccc2)CN(S(=O)(=O)c2ccc(CN)s2)C1 (racemic) [Example 9, cis-1-((5-(Aminomethyl)thiophen-2-yl)sulfonyl)-N,N-dimethyl-5-phenylpiperidine-3-carboxamide 2,2,2-trifluoroacetate] | 6.00 to 6.30 | ≥ 6.30 |
| NCc1ccc(S(=O)(=O)N2C[C@@H](C(=O)N3CCS(=O)(=O)CC3)C[C@@H](c3ccccc3)C2)s1 (racemic) [Example 75, cis-(1-((5-(Aminomethyl)thiophen-2-yl)sulfonyl)-5-phenylpiperidin-3-yl)(1,1-dioxidothiomorpholino)methanone 2,2,2-trifluoroacetate] | ≥ 6.30 | ≥ 6.30 |
